From PMC5218472 (PLoS Biology, 2017)
Residues, ends and D or L forms follow the SMILES beside them. *: point of attachment. X1 = CC(=O)N[C@@H]1[C@@H](O)[C@H](O[C@@H]2O[C@H](CO)[C@@H](O[C@@H]3O[C@H](CO[C@H]4O[C@H](CO)[C@@H](O)[C@H](O)[C@@H]4O[C@@H]4O[C@H](CO)[C@@H](O[C@@H]5O[C@H](CO)[C@H](O)[C@H](O)[C@H]5O)[C@H](O)[C@H]4NC(C)=O)[C@@H](O)[C@H](O[C@H]4O[C@H](CO)[C@@H](O)[C@H](O)[C@@H]4O[C@@H]4O[C@H](CO)[C@@H](O[C@@H]5O[C@H](CO)[C@H](O)[C@H](O)[C@H]5O)[C@H](O)[C@H]4NC(C)=O)[C@@H]3O)[C@H](O)[C@H]2NC(C)=O)[C@@H](CO)O[C@H]1N*; αGalNAc = CC(=O)N[C@@H]1[C@@H](O)[C@@H](O)[C@@H](CO)O[C@@H]1*

What was measured:
[1] = target: T1, recombinant catalytic domain of ADAM17 (Homo sapiens, UniProt P78536); assay: In vitro cleavage assay of IL-6R (glyco)peptides with recombinant ADAM17; conditions: 50 μM peptide, 25 mM Hepes pH 9.0, 16 h, 37°C, RP chromatography
T1 construct: catalytic domain (aa Pro-18 to Val-477) of ADAM17; purchased Enzo Life Sciences GmbH (Lörrach, Germany)
T1 sequence (P78536 18-477): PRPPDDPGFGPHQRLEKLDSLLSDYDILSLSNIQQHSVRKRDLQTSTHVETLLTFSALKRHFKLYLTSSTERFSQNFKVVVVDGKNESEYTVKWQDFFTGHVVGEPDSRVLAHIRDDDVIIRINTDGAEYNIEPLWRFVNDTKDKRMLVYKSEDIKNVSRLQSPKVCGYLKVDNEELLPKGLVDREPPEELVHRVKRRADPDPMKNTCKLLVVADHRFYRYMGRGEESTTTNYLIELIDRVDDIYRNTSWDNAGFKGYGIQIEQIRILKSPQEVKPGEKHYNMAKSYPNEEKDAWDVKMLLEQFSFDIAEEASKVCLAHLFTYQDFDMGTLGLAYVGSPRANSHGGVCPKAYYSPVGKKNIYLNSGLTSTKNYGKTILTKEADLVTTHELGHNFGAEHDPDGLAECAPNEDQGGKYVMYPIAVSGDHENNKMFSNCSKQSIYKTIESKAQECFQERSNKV
Protocol: (§1) Fig 7 The N- and O-glycosylated sequon adjacent to the cleavage site is of minor importance for IL-6R cleavage. (A) Amino-acid sequence of the two unglycosylated peptides 1(QD) and 2(QA). Peptides were incubated either with or without recombinant ADAM17 for 16 h at 37°C, and the amount of cleaved peptide was analyzed by reversed-phase (RP) chromatography. (B) Amino-acid sequence of the two glycopeptides 3(QD) and 4(QA), which have a GlcNAc attached to the amino-acid residue corresponding to Asn-350 of the IL-6R. Cleavage was determined as described in panel (A). (C) Amino-acid sequence of the two glycopeptides 5(QD) and 6(QA), which have a biantennary N-glycan attached to the amino-acid residue corresponding to Asn-350 of the IL-6R. Cleavage was determined as described in panel (A). (D) Amino-acid sequence of the two glycopeptides 7(QD) and 8(QA), which have a GalNAc attached to the amino-acid residue corresponding toThr-352 of the IL-6R. Cleavage was determined as described in panel (A). (E) Amino-acid sequence of the two glycopeptides 9(QD) and 10(QA), which have a biantennary N-glycan attached to the amino-acid residue corresponding to Asn-350 and a GalNAc attached to the amino-acid residue corresponding toThr-352 of the IL-6R. Cleavage was determined as described in panel (A). All data shown are the mean ± SD from three independent experiments (*p < 0.05, **p < 0.01, ***p < 0.001, compared to the untreated peptide; ^§p < 0.05, compared to the cleaved nonglycosylated peptide).
(§2) Two 1.5 ml reaction tubes were filled with 50 μl peptide (50 μM) solved in 25 mM Hepes (pH 9.0), and 0.5 μl of the recombinant catalytic domain of ADAM17 was added to one of the reaction tubes, whereas the other sample remained untreated. All samples were incubated for 16 h at 37°C. Afterwards, 1,150 μl 0.1% TFA was added to each sample, and the peptides were separated on a reverse phase chromatography column (Multo High Bio-200-C18) from Chromatographie Service (Langerwehe, Germany) using a linear gradient elution with a binary solvent system and a flow rate of 1 ml/min. Solvent A consisted of 0.1% TFA, and solvent B consisted of 100% ACN. After peak integration, peak areas for cleaved and noncleaved peptides were determined.

[2] = as above; conditions: human, isolated enzyme; 50 μM peptide, 25 mM Hepes pH 9.0, recombinant catalytic domain of ADAM17, 16 h, 37°C, reverse phase C18 chromatography, peak areas; mean of 3 independent experiments; read-out: intact peptide after incubation with ADAM17 (untreated peptide = 100), mean
Protocol: as §1, §2

[3] = system: ADAM10 / ADAM17; assay: PMA-induced shedding of wild-type IL-6R in HEK293 cells after pretreatment with inhibitors GI or GW, ELISA (Fig 9B); format: cell-based, human; conditions: HEK293, wild-type IL-6R; PMA stimulation, GI or GW given as pretreatment before PMA; mean of n = 3
Protocol: (§3) Fig 9 An IL-6R devoid of all N-glycans is defective in ADAM17-mediated proteolysis. (A) PMA-mediated ectodomain shedding of IL-6R-5N with a stably transduced Ba/F3-gp130 cell line. Data shown are the mean ± SD from three independent experiments compared to wild-type IL-6R. (B) HEK293 cells were transiently transfected with a cDNA encoding wild-type IL-6R. Cells were pretreated with the ADAM10-specific inhibitor GI or the combined ADAM10/ADAM17-specific inhibitor GW for 30 min and then stimulated with 100 nM PMA for 2 h as indicated. The amount of sIL-6R in the cell supernatant was determined by ELISA. One out of three experiments with similar outcomes is shown (mean ± SD, n = 3). (C) The experiment was performed as described under (B), but sIL-6R was precipitated from cell supernatant and analyzed by western blot. Furthermore, the cells were lysed, and IL-6R expression in the lysates was also determined by western blot. β-actin served as loading control. […] (D, E) The experiment was performed as described in […], but HEK293 cells were transiently transfected with a cDNA encoding IL-6R-5N. nd, not detected. (F) Cell-surface expression of the IL-6R-5N variant on transiently transfected HEK293 cells analyzed via flow cytometry (black histogram). […] The expression of all proteins (input) and the interaction of the IL-6R variants with MPD17-CANDIS were analyzed via western blot. […]

[4] = system: ADAM10 / ADAM17; assay: PMA-induced shedding of IL-6R-5N in HEK293 cells after pretreatment with inhibitors GI or GW, ELISA (Fig 9D); format: cell-based, human; conditions: HEK293, IL-6R-5N; PMA stimulation, GI or GW given as pretreatment before PMA; mean of n = 3
Protocol: as §3

[5] = system: Ba/F3-gp130 cells; assay: Proliferation of Ba/F3-gp130 cells with 10 ng/ml IL-6 plus recombinant sIL-6R or ds-sIL-6R (IL-6 trans-signaling), Cell Titer Blue; format: cell-based; conditions: 0-100 ng/ml with 10 ng/ml IL-6, 48 h
Source text: Fig 1 The majority of sIL-6R in human serum is not generated by alternative mRNA splicing. (A) Multiple sequence alignment of amino acids Met-310 to Ala-370 of the full-length human IL-6R with the sIL-6R (Met-310 to Gln-357) and amino acids Met-310 to Leu-365 of the differentially spliced sIL-6R (ds-sIL-6R). The ten unique C-terminal amino-acid residues of the […], which represent the epitope against which the antibody ds6R was raised, are colored in green. (B, C) Proliferation assay of Ba/F3-gp130 cells in response to 10 ng/ml IL-6 and increasing amounts (0–100 ng/ml) of either (B) recombinant sIL-6R or (C) recombinant ds-sIL-6R. Cell viability was assessed after 48 h. […]
Proliferation of the different Ba/F3-gp130-IL-6R cell lines in response to IL-6 and Hyper-IL-6 and of Ba/F3-gp130 cells in response to IL-6 and the two different recombinant sIL-6R variants was determined using the Cell Titer Blue Cell viability assay reagent (Promega, Karlsruhe, Germany), following the manufacturer’s protocol as described previously. Values were measured in triplicates per experiment, and relative light units (RLU) obtained after 60 min were normalized by subtraction of control values obtained after 0 min. The maximum proliferation was set to 100%, and all other values were calculated accordingly.

Row | Molecule | cleavage by recombinant ADAM17, in words [1] | remaining at 16 h [2] | sIL-6R in supernatant (ELISA), Figure 9B, mean [3] | sIL-6R in supernatant (ELISA), Figure 9D, mean [4] | IL-6 trans-signaling activity, in words [5]
1 | CC[C@H](C)[C@H](NC(=O)[C@@H](N)CC(N)=O)C(=O)N[C@@H](CC(C)C)C(=O)N[C@@H](Cc1ccccc1)C(=O)N[C@@H](CCCNC(=N)N)C(=O)N[C@@H](CC(=O)O)C(=O)N[C@@H](CO)C(=O)N[C@@H](C)C(=O)N[C@@H](CC(=O)N[C@@H]1O[C@H](CO)[C@@H](O[C@@H]2O[C@H](CO)[C@@H](O[C@@H]3O[C@H](CO[C@H]4O[C@H](CO)[C@@H](O)[C@H](O)[C@@H]4O[C@@H]4O[C@H](CO)[C@@H](O[C@@H]5O[C@H](CO)[C@H](O)[C@H](O)[C@H]5O)[C@H](O)[C@H]4NC(C)=O)[C@@H](O)[C@H](O[C@H]4O[C@H](CO)[C@@H](O)[C@H](O)[C@@H]4O[C@@H]4O[C@H](CO)[C@@H](O[C@@H]5O[C@H](CO)[C@H](O)[C@H](O)[C@H]5O)[C@H](O)[C@H]4NC(C)=O)[C@@H]3O)[C@H](O)[C@H]2NC(C)=O)[C@H](O)[C@H]1NC(C)=O)C(=O)N[C@@H](C)C(=O)N[C@H](C(=O)N[C@@H](CO)C(=O)N[C@@H](CC(C)C)C(=O)N1CCC[C@H]1C(=O)N[C@H](C(=O)N[C@@H](CCC(N)=O)C(=O)N[C@@H](CC(=O)O)C(=O)N[C@@H](CO)C(=O)N[C@@H](CO)C(=O)N[C@@H](CO)C(=O)N[C@H](C(=O)N1CCC[C@H]1C(=O)N[C@@H](CC(C)C)C(=O)N1CCC[C@H]1C(=O)O)C(C)C)C(C)C)[C@@H](C)O[C@H]1O[C@H](CO)[C@H](O)[C@H](O)[C@H]1NC(C)=O [9(QD)] (H-NILFRDSAD(X1)AT(αGalNAc)SLPVQDSSSVPLP-OH; N-terminus and C-terminus assumed) | again blocked | 95.6% |  |  | 
2 | CNC(=O)[C@@H](NC(=O)[C@H](CCCc1ccccc1)[C@H](C)N(O)C=O)C(C)(C)C [GI] |  |  | 48715.8 | 0 | 
3 | CCCCCCCCCCCCCC(=O)O[C@@H]1[C@@H](C)[C@@]2(O)[C@@H](C=C(CO)C[C@]3(O)C(=O)C(C)=C[C@@H]23)[C@@H]2C(C)(C)[C@]12OC(C)=O [PMA, phorbol-12-myristate-13-acetate] |  |  | 71566.4 | 0 | 
4 | sIL-6R: recombinant soluble IL-6 receptor expressed in HEK293-EBNA cells (protein, UniProt P08887 20-365, looked up, extracellular domain recombinant, recombinant soluble IL-6 receptor expressed in HEK293-EBNA cells) extracellular domain: LAPRRCPAQEVARGVLTSLPGDSVTLTCPGVEPEDNATVHWVLRKPAAGSHPSRWAGMGRRLLLRSVQLHDSGNYSCYRAGRPAGTVHLLVDVPPEEPQLSCFRKSPLSNVVCEWGPRSTPSLTTKAVLLVRKFQNSPAEDFQEPCQYSQESQKFSCQLAVPEGDSSFYIVSMCVASSVGSKFSKTQTFQGCGILQPDPPANITVTAVARNPRWLSVTWQDPHSWNSSFYRLRFELRYRAERSKTFTTWMVKDLQHHCVIHDAWSGLRHVVQLRAQEEFGQGEWSEWSPEAMGTPWTESRSPPAENEVSTPMQALTTNKDDDNILFRDSANATSLPVQDSSSVPLP |  |  |  |  | biologically active
